In paper PMC6792352, “Limited Chemical Structural Diversity Found to Modulate Thyroid Hormone Receptor in the Tox21 Chemical Library” (Environmental Health Perspectives, 2019):
Where a name gives a salt, the structure may show the parent alone.

Assay: in vitro
Settings: rat, gh3-tre-luc cells, AC50 (uM) modified / 1000

Point of comparison: `CN1CCN(CCCN2c3ccccc3Sc3ccc(S(=O)(=O)N(C)C)cc32)CC1` [Thioproperazine dimethanesulfonate], CC50 at 24 h 14.2 µM. Against it:
- CC(=O)Nc1c(I)cc(I)c(C(=O)O)c1I [Acetrizoic acid] — higher, > 50 µM
- Cc1cc(O)c2c(c1)C(=O)c1cccc(O)c1C2=O [Chrysophanic acid] — higher, > 50 µM
- CCOC(=O)C(C#N)=C(c1ccccc1)c1ccccc1 [Ethyl 2-cyano-3,3-diphenylacrylate] — higher, > 90 µM
- CCCCCCCCCCCCCCBr [1-Bromotetradecane] — higher, > 100 µM
- [O-][n+]1cc[n+]([O-])c2ccccc21 [Quindoxin] — higher, > 50 µM
- O=C(O)c1cccc(C(=O)O)c1 [1,3-Benzenedicarboxylic acid] — higher, > 90 µM
- C/C=C(/C(=C/C)c1ccc(O)cc1)c1ccc(O)cc1 [Dienestrol] — within 1.5-fold, 16.1 µM
- CCc1c(C)[nH]c2c1C(=O)C(CN1CCOCC1)CC2 (stereo not drawn) [Molindone hydrochloride] — higher, > 20 µM
- CCCCCCCCCCCCCC(=O)OCC(COP(=O)([O-])OCC[N+](C)(C)C)OC(=O)CCCCCCCCCCCCC (racemic) [1,2-Ditetradecanoyl-rac-glycerol-3-phosphocholine] — higher, > 50 µM
- CN1CCC(=C2c3ccccc3C=Cc3ccccc32)CC1 [Cyproheptadine] — within 1.5-fold, 12.2 µM
- CCCCCCCCCCCCCCN(C)C [N,N-Dimethyltetradecylamine] — higher, > 20 µM
- CCCC(C)C(O)CC (stereo not drawn) [4-Methyl-3-heptanol] — higher, > 90 µM
- C[N+]1(C)[C@@H]2CC[C@H]1CC(OC(=O)c1c[nH]c3ccccc13)C2 (stereo partly drawn) [Tropisetron methyliodide] — higher, > 50 µM
- CCCCCCC(=O)O[C@H]1CC[C@H]2[C@@H]3CCc4cc(O)ccc4[C@H]3CC[C@]12C [Estradiol enanthate] — higher, > 50 µM
- C=CC(=O)OCCn1c(=O)n(CCOC(=O)C=C)c(=O)n(CCOC(=O)C=C)c1=O [(2,4,6-Trioxo-1,3,5-triazinane-1,3,5-triyl)triethane-2,1-diyl trisprop-2-enoate] — 2.8-fold lower, 4.99 µM
- NS(=O)(=O)c1ccc(Cl)c(S(N)(=O)=O)c1 [Clofenamide] — higher, > 50 µM
- CC(=O)OCC(=O)[C@@]1(O)CC[C@H]2[C@@H]3CCC4=CC(=O)C=C[C@]4(C)[C@H]3[C@@H](O)C[C@@]21C [Prednisolone acetate] — higher, > 50 µM
- NCC1(Cc2noc(=O)[nH]2)CCCCC1 [PD 0200347] — higher, > 90 µM
- C#C[C@]1(O)CC[C@H]2[C@@H]3CCC4=CC(=NO)CC[C@@H]4[C@H]3CC[C@@]21CC [Norelgestromin] — 2.5-fold higher, 35.1 µM
- C=CC(=O)OCCCCCCCCCC [Decyl prop-2-enoate] — higher, > 90 µM
- CCOC(=O)[C@H](CCc1ccccc1)N[C@@H](C)C(=O)N1Cc2cc(OC)c(OC)cc2C[C@H]1C(=O)O [Moexipril hydrochloride] — higher, > 50 µM
- O=C(O)c1ccc(O)cc1 [4-Hydroxybenzoic acid] — higher, > 90 µM
- CN1C(=S)CN=C(c2ccccc2)c2cc(Cl)ccc21 [Sulazepam] — higher, > 50 µM
- Cc1c(C)c2c(c(C)c1OC(=O)c1cccnc1)CC[C@@](C)(CCC[C@H](C)CCC[C@H](C)CCCC(C)C)O2 (racemic) [DL-alpha Tocopheryl nicotinate] — higher, > 50 µM
- O=C(O)CCCCCCCCC(=O)O [Decanedioic acid] — higher, > 90 µM
- CCCCCCC1CCCC(=O)O1 (stereo not drawn) [Undecanoic delta-lactone] — higher, > 90 µM
- O=C(Nc1ccccc1)OCC(CN1CCCCC1)OC(=O)Nc1ccccc1 (stereo not drawn) [Diperodon hydrochloride] — within 1.5-fold, 10.5 µM
- CCCCN(CCCC)c1ccc(C(=O)c2ccccc2C(=O)O)c(O)c1 [2-[4-(Dibutylamino)-2-hydroxybenzoyl]benzoic acid] — 3.3-fold higher, 46.7 µM
- CN(C)[C@@H]1C(O)=C(C(N)=O)C(=O)[C@@]2(O)C(O)=C3C(=O)c4c(O)cccc4[C@@](C)(O)[C@H]3[C@H](O)[C@@H]12 [Oxytetracycline hydrochloride] — higher, > 90 µM
- CC(C)(C)C1CCC(O)CC1 (stereo not drawn) [4-tert-Butylcyclohexanol] — higher, > 90 µM
- C=CC(=O)OCCOC(=O)CCC(=O)O [4-[2-(Acryloyloxy)ethoxy]-4-oxobutanoic acid] — higher, > 90 µM
- Nc1cc(Cl)ccc1Cl [2,5-Dichloroaniline] — higher, > 90 µM
- COC(=O)[C@@H]1[C@H]2CC[C@@H](C[C@H]1OC(=O)c1ccccc1)N2C [Allococaine hydrochloride] — higher, > 50 µM
- CC(=O)Nc1c(I)c(NC(C)=O)c(I)c(C(=O)O)c1I [Diatrizoic acid dihydrate] — higher, > 50 µM
- CCNC(=O)C1CC(C)CCC1C(C)C (stereo not drawn) [N-Ethyl-4-menthane-3-carboxamide] — higher, > 90 µM
- O=C(O[C@H]1C[C@H]2CC[C@@H](C1)[N+]21CCCC1)C(O)(c1ccccc1)c1ccccc1 [Trospium chloride] — higher, > 50 µM
- CC1(C)CC(N=C=O)CC(C)(CN=C=O)C1 (stereo not drawn) [Isophorone diisocyanate] — higher, > 90 µM
- CC1(C)C(=O)N(Cl)C(=O)N1Br [1-Bromo-3-chloro-5,5-dimethylhydantoin] — higher, > 90 µM
- Cc1cnc(NC(=O)C2=C(O)c3ccccc3S(=O)(=O)N2C)s1 [Meloxicam] — higher, > 90 µM
- CN(C)Cc1cc(CN(C)C)c(O)c(CN(C)C)c1 [2,4,6-Tris(dimethylaminomethyl)phenol] — higher, > 90 µM
- N#Cc1ccccc1C#N [1,2-Benzenedicarbonitrile] — higher, > 70 µM
- N[C@H](Cc1c[nH]c2ccccc12)C(=O)O [d-Tryptophan] — higher, > 90 µM
- CCc1ccc2c(c1)C(=O)c1ccccc1C2=O [2-Ethylanthraquinone] — higher, > 90 µM
- CCOC(=O)[C@H](CS)NCCN[C@@H](CS)C(=O)OCC [Bicisate dihydrochloride] — higher, > 50 µM
- CCn1cc(C(=O)O)c(=O)c2ccc(C)nc21 [Nalidixic acid] — higher, > 90 µM
- OC[C@H]1O[C@@H](n2cnc3c(O)ncnc32)[C@H](O)[C@@H]1O [Inosine] — higher, > 50 µM
- Cc1cc(C)n(CO)n1 [(3,5-Dimethyl-1H-pyrazol-1-yl)methanol] — higher, > 90 µM
- CN(C)C(=O)Oc1cccc([N+](C)(C)C)c1 [Neostigmine bromide] — higher, > 50 µM
- CCc1ncnc2cc(OC)c(OC)cc12 [Quazodine] — higher, > 50 µM
- CC(C)=CCC/C(C)=C/C(=O)O [Geranic acid] — higher, > 90 µM
- O=C(OCC1(COC(=O)c2cccnc2)CCCC(COC(=O)c2cccnc2)(COC(=O)c2cccnc2)C1O)c1cccnc1 [Nicomolol] — higher, > 50 µM
- CC1(C)CC(O)CC(C)(C)N1 [2,2,6,6-Tetramethyl-4-piperidinol] — higher, > 90 µM
- CC(C)(C)OC=O [tert-Butyl formate] — higher, > 100 µM
- COC(=O)/C=C(\C)CCC=C(C)C [Methyl geranate] — higher, > 90 µM
- COP(=O)(OC)SCn1c(=O)oc2cc(Cl)cnc21 [Azamethiphos] — higher, > 90 µM
- CCCCN(CCO)CCCC [2-(Dibutylamino)ethanol] — higher, > 90 µM
- CCCCCCCCCCn1cc[n+](CCCCCCCCCC)c1C [1,3-Didecyl-2-methylimidazolium chloride] — 2.3-fold lower, 6.21 µM
- N[C@@H](CSCC(=O)O)C(=O)O [Carbocysteine] — higher, > 50 µM
- CN(C)C(=O)NC1(c2ccccc2)CCN(CCC[C@]2(c3ccc(Cl)c(Cl)c3)CCCN(C(=O)c3ccccc3)C2)CC1 [SSR146977] — 1.8-fold lower, 8.07 µM
- CC(O)C1CCCCC1 (stereo not drawn) [1-Cyclohexylethanol] — higher, > 90 µM
- CC1=NNC(=O)N(/N=C/c2cccnc2)C1 [Pymetrozine] — higher, > 90 µM
- CCCC(=O)O [Butanoic acid] — higher, > 100 µM

Same assay, conditions: rat, gh3-tre-luc cells, AC50 (uM) modified / 1000, Tox21_110001=Tox21_111893; viability, 1 nM T3 present, 24 h

`O=C1c2ccccc2C(=O)C1C(=O)C(c1ccccc1)c1ccccc1` [Diphacinone] gave a CC50 at 24 h greater than 50 µM.

Same assay, conditions: rat, gh3-tre-luc cells, AC50 (uM) modified / 1000, Tox21_110001=Tox21_112370; viability, 1 nM T3 present, 24 h

Molecule `OC[C@@H](O)[C@H]1O[C@@H]2O[C@@H](C(Cl)(Cl)Cl)O[C@@H]2[C@H]1O` [beta-Chloralose] has a CC50 at 24 h greater than 50 µM.

Same assay, conditions: rat, gh3-tre-luc cells, AC50 (uM) modified / 1000, Tox21_110001=Tox21_112409; viability, 1 nM T3 present, 24 h

With `CCN(CC)C(=O)C(Cl)=C(C)OP(=O)(OC)OC` [Phosphamidon] the CC50 at 24 h was greater than 50 µM.

Same assay, conditions: rat, gh3-tre-luc cells, AC50 (uM) modified / 1000, Tox21_110001=Tox21_112855; viability, 1 nM T3 present, 24 h

`C[C@@H]1[C@H]2Cc3ccc(O)cc3[C@]1(C)CCN2C` [(-)-Metazocine fumarate (1:1)] showed a CC50 at 24 h greater than 200 µM.

Same assay, conditions: rat, gh3-tre-luc cells, AC50 (uM) modified / 1000, Tox21_110001=Tox21_112870; viability, 1 nM T3 present, 24 h

For `Cc1nc2ccccc2c(=O)n1-c1ccccc1Cl` [Mecloqualone], the CC50 at 24 h was 42.7 µM.

Same assay, conditions: rat, gh3-tre-luc cells, AC50 (uM) modified / 1000, Tox21_110001=Tox21_202100; viability, 1 nM T3 present, 24 h

For `CCN(CC)C(=O)C(Cl)=C(C)OP(=O)(OC)OC` [Phosphamidon], the CC50 at 24 h was greater than 90 µM.

Same assay, conditions: rat, gh3-tre-luc cells, AC50 (uM) modified / 1000, Tox21_110001=Tox21_202244; viability, 1 nM T3 present, 24 h

In the case of `Clc1ccccc1-c1ccccc1Cl` [2,2'-Dichlorobiphenyl], the CC50 at 24 h is reported as greater than 100 µM.

Same assay, conditions: rat, gh3-tre-luc cells, AC50 (uM) modified / 1000, Tox21_110001=Tox21_202289; viability, 1 nM T3 present, 24 h

In the case of `CCC[N+](=O)[O-]` [1-Nitropropane], the CC50 at 24 h is reported as greater than 90 µM.

Same assay, conditions: rat, gh3-tre-luc cells, AC50 (uM) modified / 1000, Tox21_110001=Tox21_202368; viability, 1 nM T3 present, 24 h

`O=Cc1cccc(Oc2ccccc2)c1` [3-Phenoxybenzaldehyde] gave a CC50 at 24 h greater than 90 µM.

Same assay, conditions: rat, gh3-tre-luc cells, AC50 (uM) modified / 1000, Tox21_110001=Tox21_300806; viability, 1 nM T3 present, 24 h

With `CNC(=O)/C=C(\C)OP(=O)(OC)OC` [Monocrotophos] the CC50 at 24 h was greater than 90 µM.

Same assay, conditions: rat, gh3-tre-luc cells, AC50 (uM) modified / 1000, Tox21_110001=Tox21_301758; viability, 1 nM T3 present, 24 h

With `OCCSCSCCO` [2,2'-(Methanediyldisulfanediyl)diethanol] the CC50 at 24 h was greater than 90 µM.

Same assay, conditions: rat, gh3-tre-luc cells, AC50 (uM) modified / 1000, Tox21_110001=Tox21_301843; viability, 1 nM T3 present, 24 h

With `COC(=O)c1ccccc1S(=O)(=O)NC(=O)Nc1nc(C)cc(C)n1` [Sulfometuron-methyl] the CC50 at 24 h was greater than 90 µM.
